# From patent US20110251379A1, “COMPOUNDS USEFUL FOR TREATING NEURODEGENERATIVE DISORDERS” (Satori Pharmaceuticals, Inc., priority 2010, published 2011)
# Where two headings read alike, the source gives them in different places.
# Experiments:
# Type in all cases: cell-based
# [1] = test system: Aβ-42; assay: MSD Human (6E10) Ab 3-PLEX elisa, conditioned media of 2B7 cells: Aβ-42; conditions: Homo sapiens; for inhibition at 20 µM: Aβ-42, 20 μM; for IC50: Aβ-42 (superscript c)
# In short: (§1)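 Confluent 2B7 cells were treated with compounds for 5 hours at 37° C in media with 1% DMSO. Conditioned media, diluted 1:1 in blocking buffer, was incubated overnight at 4 °C or 2 h at room temperature on MSD 6E10 plates. Aβ levels were read against seven-point standard curves, and IC50 was obtained from 4-parameter fits of percent vehicle.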
# [2] = test system: Aβ-40; assay: MSD Human (6E10) Ab 3-PLEX elisa, conditioned media of 2B7 cells: Aβ-40; conditions: for inhibition at 20 µM / IC50: Homo sapiens; for inhibition at 20 µM: Aβ-40, 20 μM; for IC50: Aβ-40 (superscript b)
# In short: as §1
# [3] = test system: Aβ-38; assay: MSD Human (6E10) Ab 3-PLEX elisa, conditioned media of 2B7 cells: Aβ-38; conditions: Homo sapiens; for inhibition at 20 µM: Aβ-38, 20 μM; for IC50: Aβ-38 (superscript a)
# In short: as §1
smiles,measurement,setting,value
C[C@@H]1CC(CNC(C(=O)O)C(F)(F)F)OC2[C@H]1[C@@]1(C)CC[C@@]34C[C@@]35CC[C@H](O[C@H]3CN(C6COC6)CCO3)C(C)(C)[C@@H]5CCC4[C@]1(C)[C@H]2O (stereo partly shown),inhibition at 20 µM,[1],25 to 75%
same,inhibition at 20 µM,[2],25 to 75%
same,inhibition at 20 µM,[3],< 25%
CC(=O)OCC1C[C@@H](C)[C@H]2C(O1)[C@H](O)[C@@]1(C)C3CC[C@H]4C(C)(C)[C@@H](O[C@H]5CN(C6COC6)CCO5)CC[C@@]45C[C@@]35CC[C@]21C (stereo partly shown),inhibition at 20 µM,[1],< 25%
same,inhibition at 20 µM,[2],< 25%
same,inhibition at 20 µM,[3],25 to 75%
C[C@@H]1CC(COC(=O)C2CCOCC2)OC2[C@H]1[C@@]1(C)CC[C@@]34C[C@@]35CC[C@H](O[C@H]3CN(C6COC6)CCO3)C(C)(C)[C@@H]5CCC4[C@]1(C)[C@H]2O (stereo partly shown),inhibition at 20 µM,[1],25 to 75%
same,inhibition at 20 µM,[2],25 to 75%
same,inhibition at 20 µM,[3],25 to 75%
C[C@@H]1C[C@](C)(CO)OC2[C@H]1[C@@]1(C)CC[C@@]34C[C@@]35CC[C@H](O)C(C)(C)[C@@H]5CCC4[C@]1(C)[C@H]2O (stereo partly shown),inhibition at 20 µM,[1],< 25%
same,inhibition at 20 µM,[2],< 25%
same,inhibition at 20 µM,[3],25 to 75%
COC(=O)O[C@H](C(C)C)C1C[C@@H](C)[C@H]2C(O1)[C@H](O)[C@@]1(C)C3CC[C@H]4C(C)(C)[C@@H](O)CC[C@@]45C[C@@]35CC[C@]21C (stereo partly shown),inhibition at 20 µM,[1],25 to 75%
same,inhibition at 20 µM,[2],25 to 75%
same,inhibition at 20 µM,[3],25 to 75%
CCOC(=O)CO[C@@H]([C@H]1C[C@@H](C)[C@H]2[C@H](O1)[C@H](O)[C@@]1(C)C3CC[C@H]4C(C)(C)[C@@H](O[C@H]5CN(C6COC6)CCO5)CC[C@@]45C[C@@]35CC[C@]21C)C(C)(C)O (stereo partly shown),inhibition at 20 µM,[1],25 to 75%
same,IC50,[2]; read-out: 50% reduction value,> 10 µM
same,inhibition at 20 µM,[3],25 to 75%
CNC(=O)O[C@@H]([C@H]1C[C@@H](C)[C@H]2[C@H](O1)[C@H](O)[C@@]1(C)C3CC[C@H]4C(C)(C)[C@@H](O)CC[C@@]45C[C@@]35CC[C@]21C)C(C)(C)O (stereo partly shown),inhibition at 20 µM,[1],25 to 75%
same,inhibition at 20 µM,[2],25 to 75%
same,inhibition at 20 µM,[3],25 to 75%
C[C@@H]1CC(COC(=O)C2CCC2)OC2[C@H]1[C@@]1(C)CC[C@@]34C[C@@]35CC[C@H](O[C@H]3CN(C6COC6)CCO3)C(C)(C)[C@@H]5CCC4[C@]1(C)[C@H]2O (stereo partly shown),inhibition at 20 µM,[1],< 25%
same,inhibition at 20 µM,[2],< 25%
same,inhibition at 20 µM,[3],25 to 75%
CC(=O)OC(C)(C)C1C[C@@H](C)[C@H]2C(O1)[C@H](O)[C@@]1(C)C3CC[C@H]4C(C)(C)C(OC(=O)N5CCOCC5)CC[C@@]45C[C@@]35CC[C@]21C (stereo partly shown),inhibition at 20 µM,[1],< 25%
same,inhibition at 20 µM,[2],< 25%
same,inhibition at 20 µM,[3],25 to 75%
C[C@@H]1CC([C@H](Oc2ncccn2)C(C)(C)O)OC2C1[C@@]1(C)CC[C@@]34C[C@@]35CCC(O)C(C)(C)[C@@H]5CCC4[C@]1(C)[C@H]2O (stereo partly shown),inhibition at 20 µM,[1],25 to 75%
same,inhibition at 20 µM,[2],25 to 75%
same,inhibition at 20 µM,[3],25 to 75%
C[C@@H]1CC([C@H](Oc2ncccn2)C(C)(C)O)OC2C1[C@@]1(C)CC[C@@]34C[C@@]35CCC(OC(=O)N3CCOCC3)C(C)(C)[C@@H]5CCC4[C@]1(C)[C@H]2O (stereo partly shown),IC50,[1]; read-out: 50% reduction value,> 10 µM
same,IC50,[2]; read-out: IC50 range,> 10 µM
same,inhibition at 20 µM,[3],25 to 75%
CC(C)[C@@H](OC(=O)C1CCOCC1)C1C[C@@H](C)[C@H]2C(O1)[C@H](O)[C@@]1(C)[C@@H]3CC[C@H]4C(C)(C)C(O)CC[C@@]45C[C@@]35CC[C@]21C (stereo partly shown),IC50,[1]; read-out: IC50 range,1 to 10 µM
same,IC50,[2]; read-out: IC50 range,1 to 10 µM
same,IC50,[3]; read-out: IC50 range,> 10 µM
COCC1C[C@@H](C)[C@H]2C(O1)[C@H](O)[C@@]1(C)[C@@H]3CC[C@H]4C(C)(C)C(O[C@H]5CN(C6COC6)CCO5)CC[C@@]45C[C@@]35CC[C@]21C (stereo partly shown),inhibition at 20 µM,[1],< 25%
same,inhibition at 20 µM,[2],< 25%
same,inhibition at 20 µM,[3],< 25%
CCOCC1C[C@@H](C)[C@H]2C(O1)[C@H](O)[C@@]1(C)C3CC[C@H]4C(C)(C)C(O[C@H]5CN(C6COC6)CCO5)CC[C@@]45C[C@@]35CC[C@]21C (stereo partly shown),inhibition at 20 µM,[1],< 25%
same,inhibition at 20 µM,[2],< 75%
same,IC50,[3]; read-out: IC50 range,1 to 10 µM
same,inhibition at 20 µM,[3],25 to 75%
CC(C)[C@@H](OC(=O)N1CCC1)C1C[C@@H](C)[C@H]2C(O1)[C@H](O)[C@@]1(C)C3CC[C@H]4C(C)(C)C(OC(=O)N5CCn6cnnc6C5)CC[C@@]45C[C@@]35CC[C@]21C (stereo partly shown),IC50,[1]; read-out: 50% reduction value,< 1 µM
same,IC50,[2]; read-out: 50% reduction value,> 10 µM
same,IC50,[3]; read-out: 50% reduction value,< 1 µM
CC(C)[C@@H](OC(=O)N1CCC1)C1C[C@@H](C)[C@H]2C(O1)[C@H](O)[C@@]1(C)C3CC[C@H]4C(C)(C)C(OC(=O)N5CCn6ccnc6C5)CC[C@@]45C[C@@]35CC[C@]21C (stereo partly shown),IC50,[1]; read-out: 50% reduction value,< 1 µM
same,IC50,[2]; read-out: 50% reduction value,> 10 µM
same,IC50,[3]; read-out: 50% reduction value,< 1 µM
C[C@@H]1CC(CN(C)[C@@H](C)C(=O)O)OC2[C@H]1[C@@]1(C)CC[C@@]34C[C@@]35CC[C@H](O[C@H]3CN(C(=O)CC6CC6)CCO3)C(C)(C)[C@@H]5CCC4[C@]1(C)[C@H]2O (stereo partly shown) [drawing 1142],inhibition at 100 µM,"[1]; Aβ-42, 100 μM",25 to 75%
same,% Inh. (range),"[2]; Aβ-40, 100 μM, 100 µM",E^a (100 μM) E^b (100 μM) E^c (100 μM) (% inhibition of 25-75%)
same,inhibition at 100 µM,"[3]; Aβ-38, 100 μM",25 to 75%
